pIC50: −log10 of the molar value. Square brackets hold non-standard residues; d marks the D form. Peptide text beside a SMILES is read from it.
Tests used:
[1] = tested on: S. aureus; experiment: Mouse wound model of luminescent S. aureus infection; type: in vivo, BALB/c mice
Text: In this protocol, BALB/c mice of 4-6 weeks of age were exposed to wounds on their backs, then inoculated with an infection of S. aureus, which had 10^5 cfu per pocket (2×10^7 […] DMEM) The S. aureus had been transfected with a plasmid containing luciferase as well as the substrate for luciferase. Using a special camera, light is detected from living bacteria in the wound. The light intensity is converted to a color scale. Controls received no peptide, and the treatment group received peptide at the indicated dose. Animals were imaged at 1, 3, 6 and 24 hrs.

[2] = Degree of helicity by circular dichroism; type: physicochemical
Method: For designing analogues of the present sequences, as taught herein, the Table also presents data on the degree of helicity of the active peptides, as measured by circular dichroism. It should be noted that a number of the active peptides listed in the figure are not alpha helices at all. At least one peptide tested was considered to be a random coil, with no detectible secondary structure evident in the circular dichroism measurement.
The MIC values are for E. coli in 10 mM phosphate buffer. The peptides were derived by the inventors from granulysin helix 3. […] It contains an equal number of hydrophobic and positively charged amino acids, can adapt an αhelical structure, and is very amphipathic. In contrast, the remaining 3 peptides all retain activity in DMEM even in the presence of serum. These peptides contain more positive residues than hydrophobic residues. G12.21 contains 2 proline residues, G11.46 is based on a modification of the helix three sequence (RRVSRRFMRR) (SEQ ID NO: 91) with a 5 arginine extension at the NH2 terminus, and G14.15 includes loop 2/RRVSRRFMRR (SEQ ID NO: 91).

[3] = tested on: Salmonella; type: cell-based, S. typhimurium; settings: pH 7.2
In short: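 Single-well growth assay: peptide + bacteria (~5×10^6 CFU/ml) in 10 mM phosphate pH 7.2/0.03% LB, 3 h 37 °C; add LB, overnight; OD600. MIC = lowest conc., no growth; IC50 = 50% growth vs medium.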

## CSCC[C@H](NC(=O)[C@H](Cc1ccccc1)NC(=O)[C@@H](CCCNC(=N)N)NC(=O)[C@@H](CCCNC(=N)N)NC(=O)[C@H](CO)NC(=O)[C@@H](NC(=O)[C@@H](CCCNC(=N)N)NC(=O)[C@@H](CCCNC(=N)N)NC(=O)[C@@H](CCCNC(=N)N)NC(=O)[C@@H](CCCNC(=N)N)NC(=O)[C@@H](CCCNC(=N)N)NC(=O)[C@@H](CCCNC(=N)N)NC(=O)[C@H](N)CCCNC(=N)N)C(C)C)C(=O)N[C@H](CCCNC(=N)N)C(=O)N[C@H](CCCNC(=N)N)C(=O)O [Peptide G11.46, rrrrrrrVSrrFMrr] (H-[dR][dR][dR][dR][dR][dR][dR]VS[dR][dR]FM[dR][dR]-OH; N-terminus and C-terminus assumed)
[1]; 25 μg and 100 μg, data not shown
  light units from S. aureus in wound: significant reduction in light units
[1]; 100 μg, after 6 hrs.
  light units from S. aureus in wound: light units approached levels obtained with the blank
[1]; by 24 hours
  recovery of bacteria: some recovery of bacteria by 24 hours
[2]; Table 4
  % α-helix: 0%
[2]; aqueous solution or TFE where stated
  secondary structure: random coils in aqueous solution or in TFE
[3]
  pIC50: 6.68
  Salmonella MIC: 0.7 µM

— patent publication US7745390B2, “Antimicrobial peptides” (priority 2005, dated 2010)
